Test results published in publication PMC7315563, “Bioactive fluorenes. Part III: 2,7-dichloro-9H-fluorene-based thiazolidinone and azetidinone analogues as anticancer and antimicrobial against multidrug resistant strains agents” (BMC Chemistry, 2020).
In brackets after ≈: the same amount, converted by molar mass.

What was measured:
[1] = test system: MDA-MB-231 human breast cancer cells; test: cell viability assay (MTT); assay type: cell-based; conditions: 24 h; for viability at 1 µg/mL: read-out: Validity (%) for sample concentrations (µg/mL) 1; for viability at 10 µg/mL: read-out: Validity (%) for sample concentrations (µg/mL) 10; for viability at 31.25 µg/mL: read-out: Validity (%) for sample concentrations (µg/mL) 31.25; for viability at 62.5 µg/mL: read-out: Validity (%) for sample concentrations (µg/mL) 62.5; for viability at 125 µg/mL: read-out: Validity (%) for sample concentrations (µg/mL) 125; for viability at 250 µg/mL: read-out: Validity (%) for sample concentrations (µg/mL) 250; for viability at 500 µg/mL: read-out: Validity (%) for sample concentrations (µg/mL) 500
Protocol: (§1) WI-38 normal lung fibroblast cells, A549 lung cancer cells, and MDA-MB-231 breast cancer cells were obtained from VACSERA—Cell Culture Unit, Cairo, Egypt. The cell lines were originally obtained from the American Tissue Culture Collection (ATCC). WI-38, A549, and MDA-MB-231 cell lines were cultured in RPMI-1640 medium supplemented with 10% inactivate fetal bovine serum (FBS) and 1% penicillin/streptomycin were bought (Gibco, Invitrogen, CA). WI-38, A549, and MDA-MB-231 cells were seeded into 96-well plates (at a density of 5000 cells/well). On the following day, cells were treated with different concentrations (0, 1, 10, 31.25, 62.5, 125, 250, 500 µg/mL) of 16 fluorene derivatives in fresh medium and incubated for another 24 h. Cell viability was then assessed using the MTT assay (Sigma Aldrich, St. Louis, MO, USA), and the absorbance was read at 570 nm using an ELISA microplate reader (Molecular Devices, Downingtown, PA, USA).

[2] = test system: WI-38 human normal fibroblast cells; test: cell viability assay (MTT); assay type: cell-based; conditions: 24 h; for viability at 31.25 µg/mL: read-out: Validity (%) for sample concentrations (µg/mL) 31.25; for viability at 62.5 µg/mL: 62.50 µg/mL, read-out: Validity (%) for sample concentrations (µg/mL) 62.50; for viability at 125 µg/mL: read-out: Validity (%) for sample concentrations (µg/mL) 125; for viability at 250 µg/mL: read-out: Validity (%) for sample concentrations (µg/mL) 250; for viability at 500 µg/mL: read-out: Validity (%) for sample concentrations (µg/mL) 500
Protocol: as §1

[3] = test system: A549 human lung cancer cells; test: cell viability assay (MTT); assay type: cell-based; conditions: 24 h; for viability at 1 µg/mL: read-out: Validity (%) for sample concentrations (µg/mL) 1; for viability at 10 µg/mL: read-out: Validity (%) for sample concentrations (µg/mL) 10; for viability at 31.25 µg/mL: read-out: Validity (%) for sample concentrations (µg/mL) 31.25; for viability at 62.5 µg/mL: 62.50 µg/mL, read-out: Validity (%) for sample concentrations (µg/mL) 62.50; for viability at 125 µg/mL: read-out: Validity (%) for sample concentrations (µg/mL) 125; for viability at 250 µg/mL: read-out: Validity (%) for sample concentrations (µg/mL) 250; for viability at 500 µg/mL: read-out: Validity (%) for sample concentrations (µg/mL) 500; for viability at 1000 µg/mL: read-out: Validity (%) for sample concentrations (µg/mL) 1000
Protocol: as §1, with “On the following day, cells were treated with different concentrations (0, 1, 10, 31.25, 62.5, 125, 250, 500 µg/mL) of 16 fluorene derivatives in fresh medium and incubated for another 24 h.” left out

[4] = test system: Staphylococcus aureus (S. aureus), multidrug resistant clinical isolate; test: agar well diffusion assay; assay type: cell-based; conditions: Staphylococcus aureus; S. aureus; 500 µg/mL of tested compound; 24 h
Source text: All microbial strains were kindly provided from the department of Medical Microbiology and Immunology faculty of Medicine Assiut University, these clinical isolates were obtained from clinical cases of infections admitted to Assiut University hospital as urinary tract infections, corneal ulcers, bacterial and fungal pneumonia, otomycosis, oral thrush and wound infections.
The clinical isolates used were multidrug resistant strains, they were resistant to β lactam (penicillin, amoxacillin, oxacillin), cephalosporins (cefazolin, cefaclor and cefepime) and macrolides (erythromycin and clarithromycin), they included Gram positive bacteria as Staphylococcus aureus (S. aureus), Methicillin-resistant Staphylococcus aureus (MRSA), Streptococcus pneumoniae (S. pneumoniae), and Gram negative bacteria as Escherichia coli (E. coli), Klebsiella pneumoniae (K. pneumoniae), Pseudomonas aeruginosa (P. aeruginosa), and Acinetobacter baumannii (A. baumannii). The fungal strains that were tested are Aspergillus flavus (A. flavus), A. niger (A. niger) and Candida albicans (C. albicans).
The antimicrobial activity of the fluorene derivatives was initially evaluated by agar well diffusion assay. Mueller–Hinton agar (CM0337) was poured into Petri dishes at 50–60 °C and left to solidify for 15 min. Subsequently, overnight microbial suspensions of tested strains was adjusted to turbidity of 0.5 McFarland Standard, which equals to 1–2 × 10^8 CFU/mL for bacteria and 1–5 × 10^6 for fungi. The microbial inoculums were then diluted in 1:100 ratio in case of bacteria and 1:10 ratio in case of fungi in order to get 1–5 × 10^5 CFU/mL. a sterile cotton swab was dipped into the adjusted microbial suspension and the Mueller–Hinton agar plates were inoculated by evenly streaking cotton swab over the agar medium. Then wells with a diameter of 0.5 cm were cut in the medium with a sterile cork borer. Stock solutions of the flourene derivatives were diluted in DMSO 1% to get 500 μg/mL concentrations. The tested flourene derivatives and controls (50 μL) were dispensed into the wells. The plates were incubated for 24 h at 37 °C for bacteria and C. albicans while at 25 °C for A. falvus and A. niger. The diameters of zones of inhibition (ZOI) around the wells were measured in mm. Following control agents were used: positive control agents—vancomycin (50 μg/mL) for Gram positive bacteria, gentamicin (10 μg/mL) (for Gram negative bacteria) and fluconazole 25 μg/mL for fungi and negative control agent is 1% DMSO.

Compound	viability at 1 µg/mL [1]	viability at 10 µg/mL [1]	viability at 31.25 µg/mL [1]	viability at 62.5 µg/mL [1]	viability at 125 µg/mL [1]	viability at 250 µg/mL [1]	viability at 500 µg/mL [1]	IC50 [1]	viability at 31.25 µg/mL [2]	viability at 62.5 µg/mL [2]	viability at 125 µg/mL [2]	viability at 250 µg/mL [2]	viability at 500 µg/mL [2]	IC50 [2]	viability at 1 µg/mL [3]	viability at 10 µg/mL [3]	viability at 31.25 µg/mL [3]	viability at 62.5 µg/mL [3]	viability at 125 µg/mL [3]	viability at 250 µg/mL [3]	also measured
O=C1CSC(c2ccccc2)N1c1nc(-c2cc(Cl)cc3c2-c2ccc(Cl)cc2C3)cs1 (stereo not drawn) [5a, 3-(4-(2,7-Dichloro-9H-fluoren-4-yl)thiazol-2-yl)-2-phenylthiazolidin-4-one]	98.3%	96.7%	93.6%	86.1%	85.9%	82.5%	75.8%	> 500 µg/mL	89.8%	83.3%	80.6%	77.3%	74.3%	> 500 µg/mL	95.6%	91.4%	86.8%	82.3%	79.7%	75.4%	viability at 500 µg/mL [3]: 45.5%; viability at 1000 µg/mL [3]: 12.5%; IC50 [3]: 413 µg/mL (≈ 834 µM); melting point: 79 to 82 °C; zone of inhibition at 500 µg/mL [4]: 3 mm
COc1ccc(C2SCC(=O)N2c2nc(-c3cc(Cl)cc4c3-c3ccc(Cl)cc3C4)cs2)cc1 (stereo not drawn) [5b, 3-(4-(2,7-Dichloro-9H-fluoren-4-yl)thiazol-2-yl)-2-(4-methoxyphenyl)thiazolidin-4-one]	97.8%	97.4%	90.8%	88.6%	87.3%	83.6%	81.5%	> 500 µg/mL	99.4%	94.4%	91.3%	81.2%	79%	> 500 µg/mL	91.2%	85.4%	84%	67.8%	64.3%	57.1%	viability at 500 µg/mL [3]: 44.2%; viability at 1000 µg/mL [3]: 17.8%; IC50 [3]: 402 µg/mL (≈ 765 µM); melting point: 74 to 76 °C; zone of inhibition at 500 µg/mL [4]: 4 mm
O=C1CSC(c2ccc(Cl)cc2)N1c1nc(-c2cc(Cl)cc3c2-c2ccc(Cl)cc2C3)cs1 (stereo not drawn) [5c, 2-(4-Chlorophenyl)-3-(4-(2,7-dichloro-9H-fluoren-4-yl)thiazol-2-yl)thiazolidin-4-one]	97.1%	95.7%	95.8%	92.1%	86.3%	84.5%	83%	> 500 µg/mL	89.7%	87.3%	83.8%	77.5%	71.3%	> 500 µg/mL	91.2%	90.1%	89.2%	80.9%	62.6%	59.8%	viability at 500 µg/mL [3]: 46.3%; viability at 1000 µg/mL [3]: 14.9%; IC50 [3]: 415 µg/mL (≈ 783 µM); melting point: 83 to 85 °C; zone of inhibition at 500 µg/mL [4]: 3 mm
